Data as given in ChEMBL document CHEMBL1154560, “New sesquiterpene/quinones from two sponges of the genus Hyrtios” (J Nat Prod, 2000).
Values after ≈ are worked out from the molar mass of the structure shown.

Assay: Toxicity in Artemia larvae
Type: organism-based
Conditions: in vivo, read-out: LD50 (the source's name)

| Compound | LC50 [µg/mL] |
| --- | --- |
| C=C1CCC[C@H]2[C@](C)(CC3=C(O)C(=O)C=C(OC)C3=O)[C@@H](C)CC[C@@]12C | 4 (≈ 11.2 µM) |
| COC1=CC(=O)C(O)=C(C[C@]2(C)[C@@H](C)CC[C@]3(C)C(C)=CCC[C@@H]23)C1=O [ISOSPONGIAQUINONE] | 2 (≈ 5.58 µM) |
